Where only a bound is given, the exact number is not on record here.

Melting point data for 89 compounds are collected here from a melting point compilation (Tetko et al.; mined from patent text by program, amines drawn as free bases though some values may be those of a salt).

For the compound `CC(C)c1nc(O)cc(=O)n1C`, the melting point is 159 °C.
Take `COC1CCN(C2CCN(c3ccc(NC(=O)c4cnn(-c5ccc(Cl)cc5)c4C)cc3C#N)CC2)CC1`: the melting point stood at 245 °C.
On to `COc1ccc([N+](=O)[O-])cc1OCCCCl`, for which the melting point lay in the range of 85 to 87 °C.
In turn, `CCn1nc(-c2ccccc2)c(-c2csc(-c3ccc(OC)cc3)n2)c(Nc2cccnc2)c1=O` displayed a melting point of 201 to 202 °C.
With `N#CC1CN1C(=O)CCN1C(=O)c2ccccc2C1=O` (centres undefined), the melting point was in the range of 168 to 170 °C.
`CNC(=O)Cn1c(-c2ccc(C)cc2)nc2ccc(Cl)nc21`: the melting point was greater than 250 °C.
Take `O=C(Nc1ccc(N2CCN(C(=O)C(O)c3ccccc3Cl)CC2)nc1)Nc1ccccc1F` (centres undefined): the melting point lay in the range of 127 to 128 °C.
To `CO/C=C(/C(=O)OC)c1ccccc1Oc1cc(O)ncn1` belongs 168 to 170 °C; to `O=C1NC(=O)C(Br)(Cc2ccccc2)C(=O)N1`, 164 to 166 °C.
To `O=C(c1ccc(Br)cc1)N1CCN(c2ccncc2)CC1` belongs 128 to 129 °C; to `CCCCCc1nc2c(N)nc3ccccc3c2s1`, 119 to 121 °C; to `COc1nnc(Cl)c(-c2c(F)cc(F)cc2F)c1-c1ccc(Br)cc1`, 113 to 119 °C.
`CCC1(NC(=O)CCl)COCOC1` registered a melting point of 89 to 95 °C.
For `CC1(C)OC(=O)N(c2cccc(C#CC#N)c2)c2ccccc21` the value was 212 to 213 °C; for `CSc1ccc2c(c1)Cc1ccc(CO)cc1O2`, 151 to 153 °C; for `O=[N+]([O-])c1cccc(CN(CCO)CCO)c1`, 71 to 72 °C.
In turn, `COC(=O)CCn1cc(C)c(=O)[nH]c1=O` gave a melting point of 112 to 119 °C.
To `O=C(CCC1C(=S)Nc2ccccc21)NCc1ccccc1` (centres undefined) belongs 114 °C; to `COc1ccc(Nc2nc(C)ccc2S(=O)(=O)c2ccc(OCc3ccccc3OC)cc2)c(C)c1`, 70 to 72 °C.
For `O=C1NC(=O)C2c3c([nH]c4ccc(Cl)cc34)-c3[nH]c4ccc(Cl)cc4c3C12` (centres undefined) the value was greater than 300 °C; for `O=C1NN=C(c2ccc3c(c2)CCN(C2CCC2)CC3)C2CCCC12` (centres undefined), 198 to 201 °C.
For `CC(C)(Oc1ccccc1)C(=O)N[C@H]1CC[C@H](c2ccc(O)cc2)CC1` the value was 114 to 117 °C.
`CCNc1nc(-c2ccc(NC(=O)NCc3ccc(N)nc3)cc2)ccc1C(=O)NC` gave a melting point of 223 to 226 °C.
With `O=S1(=O)N(CCCN2CCN(c3ccc(O)cc3)CC2)c2cccc3c2N1CCC3`, the melting point was 182 °C.
To `COc1ccc2c(c1)CCC(CC#N)C2=O` (centres undefined) belongs 90 to 93 °C; to `CCC(=O)NC[C@@H]1C[C@H]1c1c(I)ccc2c1CCO2` (relative stereo), 148 to 149 °C; to `CC1=C(c2ccccc2)n2nc(C)c3c(=O)[nH]c(=S)n(c32)C1`, 255 to 257 °C.
For `CCN(CC)CC(=O)N1c2ccccc2NC(=O)c2c1c(C)cn2C` the value was 174 to 175 °C; for `COc1cc(F)c(F)cc1OCCN`, 44 to 46 °C; for `Cc1nc(N)nc(OCc2ccccc2)c1[N+](=O)[O-]`, 159 to 160 °C.
For `C[C@@H](S[C@H]1CO[C@H](c2ccc(C(=O)Nc3ccncc3)cc2)OC1)[C@](O)(Cn1cncn1)c1ccc(F)cc1F` the value was 133 °C; for `CCOP(=O)(OCC)N1CCN(c2cc3c(cc2F)c(=O)c(C(=O)O)cn3C2CC2)CC1`, 192 to 193 °C; for `CC(=O)O[C@@H](c1cnnn1-c1ccccc1)[C@@H](CCN1CCC(N2CCCCC2=O)CC1)c1ccc(Cl)c(Cl)c1` (racemic), 65 to 67 °C.
Turning to `CCOC(=O)COc1cnc(S)nc1O`, the melting point fell in the range of 157 to 160 °C.
For `COc1ccc(S(=O)(=O)N(Cc2cccnc2)c2c(C(=O)O)cnc3c2c(C)nn3-c2ccccc2)cc1` the value was 192 to 194 °C.
For `COC1=C(OC)C(=O)C2=C(CC(CCCCCCCCN3C(=O)c4ccccc4C3=O)C2)C1=O` the value was 91 to 93 °C; for `O=[N+]([O-])c1ccc(CN2CCNCCNCCNCC2)cc1`, 128 to 129 °C.
For `CC1(C)CC(=O)C(C(=O)NS(=O)(=O)c2ccccc2)C(=O)C1` the value was 101 to 103 °C; for `COc1ccc(CCc2nnc(-c3ccc4nccn4c3)o2)cc1C(F)(F)F`, 150 to 151 °C.
Regarding `CCCCc1nc(C(C)=O)c(C#N)n1Cc1ccc(-c2ccccc2C(=O)O)cc1`, the melting point was greater than 55 °C.
To `NCCCc1cn(S(=O)(=O)c2c(Cl)nc3sccn23)c2ccc(F)cc12` belongs 139 to 141 °C; to `CC(Cl)(Cl)C(Cl)(Cl)c1cccc([N+](=O)[O-])c1`, 75.5 to 77 °C; to `O=C(O)c1ccc(CN([C@@H](CO)c2ccccc2)S(=O)(=O)c2ccc(Cl)cc2)cc1`, 85 to 87 °C.
For `CCOC(=O)c1cn(C2CC2)c2c(C)c(N3CCN(C)CC3)c(F)c(Cl)c2c1=O` the value was 175 to 177 °C; for `O=c1[nH]ncn1-c1ccc(-n2ncn(-c3ccc(OCC(F)(F)C(F)F)cc3)c2=O)cc1`, 297 to 298 °C.
In turn, `CCc1nc2c(C)cc(C)nc2n1Cc1ccc(-c2ccccc2)c(-c2nc(=O)o[nH]2)c1` came in with a melting point of 149 to 152 °C.
To `O=C1OCc2c1oc1c(F)cccc1c2=O` belongs 164 °C; to `Fc1cc2c(cc1F)Sc1cc(F)c(F)cc1S2`, 108 °C.
The compound `On1c(-c2ccc(F)cc2)nc2ccc(Cn3ccnc3)cc21` returned a melting point of 82 °C.
To `O=C(OCCC1CC1)c1ncn2c1[C@@H]1CCCN1C(=O)c1c(Cl)cccc1-2` belongs 163 to 164 °C.
For `FC(F)(F)c1cccc(Oc2ccnc(-c3ccc(Cl)cc3)n2)c1` the value was 92 °C; for `CC1(C)NC(=O)CN1C(=O)CNC(=O)CN1CCCC1=O`, 229 to 231 °C.
To `CN(C)C(=O)Nc1cc(O)cc(O)c1` belongs 230 °C.
On to `COC(=O)CCc1nc(C=O)ccc1OC`, for which the melting point lay in the range of 95 to 97 °C.
For `CCOC(=O)COc1ccc(SCc2cccc3nc(-c4ccc(C(F)(F)F)cc4)sc23)cc1C`, the melting point was 193 to 196 °C.
To `CC(C)(C)OC(=O)NC[C@H]1CN(c2ccc3c(c2)CCCc2cn[nH]c2-3)C(=O)O1` belongs 85 to 100 °C; to `COC(=O)c1c(Br)c(F)cc2nn(C)cc12`, 146 to 147 °C; to `O=C(Cn1c(-c2ccc(F)cc2)ncc(NC(=O)OCc2ccccc2)c1=O)N[C@@H](Cc1ccccc1)C(=O)C(F)(F)C(=O)NCc1ccccc1`, 185 to 186 °C.
To `CC(=O)Nc1ccccc1N1CCc2cc(Cl)ccc21` belongs 136 to 138 °C; to `CCN(CC)C(=O)SC1(C(=O)N(CC)CC)C=CC=NC1F` (centres undefined), 87 to 88 °C; to `CCOC(=O)OC1CCC2(C)C3=C(CCC2C1)C1=CCC(C(C)CCCC(C)C)C1(C)CC3` (centres undefined), 101 to 106 °C.
To `CCN1C(=O)CCCc2ccc(Nc3ncc(Br)c(Nc4c(F)cccc4C(=O)NC)n3)cc21` belongs 231 to 232 °C; to `CCOC(=O)CCC1(NC(=O)c2ccc(Cl)c(Cl)c2)C(=O)Nc2ccccc21` (centres undefined), 227 to 228 °C; to `Cn1c(C(F)(F)F)cc(=O)n(C)c1=O`, 85 to 87 °C.
Consider `CC12CCC(=O)CC1CCC1C2CCC2(C)C(OC(=O)CCl)CCC12` (centres undefined), for which the melting point fell in the range of 135 to 136 °C.
To `Cc1cccc(-c2nc3ccccn3c2-c2ccnc(-c3ccc(OCc4cn(C)cn4)cc3)c2)n1` belongs 120 °C.
For `O=[N+]([O-])c1ccc(OCCN2CCN(c3nsc4ccccc34)CC2)cc1` the value was 115 °C; for `CC(C)(C)OC(=O)[C@@H]1CSC(C2CCCCC2)N1C(=O)CNC(=O)Nc1cccc(CC(=O)O)c1` (some centres undefined), 115 °C; for `CN1C(=O)C(=NO)C(=NCCCCCC(=O)O)N(C)C1=O`, 246 to 248 °C.
To `Cc1nc2cnccc2n1-c1ccc(CCO)cc1` belongs 196 to 198 °C; to `Cc1oc(-c2ccccc2)nc1COc1ccc(CCCC2OC(=O)NC2=O)cc1OC(C)C` (centres undefined), 120 to 121 °C.
`c1ccc(CSc2nnc(-c3ccc4c(c3)CCO4)o2)cc1` registered a melting point of 148 to 149 °C.
The compound `COc1cccc(CN2CCN(C(=S)SC)CC2)c1OC` gave a melting point of 110 to 111 °C.
As to `CC(CNC(=O)c1ccc(Oc2ccc(F)cc2)o1)N(O)C(N)=O` (centres undefined), the melting point is 180 to 181 °C.
To `Cc1cc(Cl)c(-n2nc(C)n(C(F)F)c2=O)cc1OC(C)C(=O)O` (centres undefined) belongs 56 to 60 °C; to `CCOC(=O)c1ccc(Br)cc1-c1ccc(OC)c(OC)c1`, 53 °C.
To `CCC[C@H]1CC[C@H](c2ccc(F)c(F)c2)CC1` belongs -15.4 °C; to `CC(C)(C)c1cccc(S(=O)(=O)n2c(CCCC(=O)O)cc3cc(C(F)(F)F)ccc32)c1`, 135 to 141 °C; to `Cc1cc(Cl)nc2ccc(Br)cc12`, 139 to 140 °C.
As to `C/C(Cl)=C/CC(C(=O)O)C(=O)O`, the melting point lay within 95 to 97 °C.
For `Cc1cc(C(=O)N2CCN(c3c(C#N)c(=O)n(Cc4ccc(F)cc4)c4ccccc34)CC2)no1` the value was 123 to 135 °C; for `Cc1ccc(S(=O)(=O)N(C)c2ccc(Cl)nn2)cc1`, 80 to 81 °C; for `CCN1c2ncc(CCc3ccccc3)cc2C(=O)N(C)c2c1ncc(C)c2C`, 187 to 188 °C.
For `CCn1cc(C(=O)O)c(=O)c2cc(F)c(N3CCC(CNC)C3)cc21` (centres undefined) the value was 247 to 250 °C; for `CSc1nc(F)cc(NN)n1`, 153 to 154 °C.
To `CS(=O)(=O)c1ccc(C2=C(c3ccc(C(F)(F)F)cc3)CCC2)cc1` belongs 134 to 135 °C; to `COC(=O)c1cc(C)c(-n2c(C)ccc2C)c(C)c1`, 104 to 106 °C; to `COc1ccc(NC(=O)N(Cc2ccccc2)Cc2ccccn2)c(NC(=O)c2cc(C(C)(C)C)c(O)c(C(C)(C)C)c2)c1`, 165 to 166 °C.
`O=S(=O)(NCc1ccc(Br)cc1)c1ccccc1Br`: the melting point lay in the range of 108 to 110 °C.
